# Measurements published in patent publication US20150118315A1, “AROMATIC-CATIONIC PEPTIDES AND USES OF SAME” (Stealth Peptides International, Inc., priority 2011, published 2015).
# Legend:
# [1] = Blood levels of salmon calcitonin after injection into duodenum, ileum or colon; assay type: in vivo; conditions: rat, other: injected directly into the duodenum, active components injected directly into the duodenum
# Excerpt: The pH-lowering agent is believed to lower the local pH (where the active agent has been released) to levels below the optimal range for many intestinal proteases. This decrease in pH reduces the proteolytic activity of the intestinal proteases, thus affording protection to the peptide from potential degradation should the peptide be present within the intestine. The activity of these proteases is diminished by the temporarily acidic environment as discussed herein. For example, sufficient acid should be provided that local intestinal pH is lowered temporarily to 5.5 or below, 4.7 or below, or 3.5 or below. The sodium bicarbonate test described below (in the section captioned “the pH-Lowering Agent”) is indicative of the required acid amount. […] The absorption enhancers of the present formulations synergistically promote peptide absorption into the blood while conditions of reduced proteolytic activity prevail. The mechanism by which the present formulations are believed to accomplish the goal of enhanced bioavailability is aided by having active components of the finished pharmaceutical product released together as simultaneously as possible.
# The acid is believed to lower the local intestinal pH, where the aromatic-cationic peptide has been released, to levels below the optimal range for many intestinal proteases and other intestinal enzymes. […]
# [2] = dog, in vivo
# Procedure: A second series of tests will be carried out, as noted above, using beagle dogs. […] In the experiments, size 00 HPLC capsules will be filled with 758 mg of a powdered blend consisting of citric acid (643 mg), lauroyl carnitine (66 mg), talc (33 mg), salmon calcitonin (sCT) (13 mg) and aromatic-cationic peptide (2.4 mg). Half of the capsules will be coated with an enteric coating solution of L30D-55, while the remaining 50% of the capsules will not be coated. Four fasted dogs will be each given 1 uncoated capsule, and 2 weeks later they will be each given an enteric coated capsule. […] The plasma samples will be subsequently analyzed for sCT by a direct ELISA, and for aromatic-cationic peptide by HPLC-mass spectrometry performed as set forth in Wan, H. and Desiderio, D., Quantitation of dmt-DALDA in ovine plasma by on-line liquid chromatography/quadrapole time-of-flight mass spectrometry, Rapid Communications in Mass Spectrometry, 2003; 17, 538-546, the contents of which are incorporated herein by reference.
# The results will be summarized as plasma peptide concentration normalized to a 1 mg dose as a function of time relative to the average Tmax, (i.e., the time at which the maximum amount of peptide is detected). The results are expected to indicate that both peptides, i.e., sCT and aromatic-cationic peptide, are detected in dogs given uncoated or enteric coated capsules.
compound,measurement,setting,value
CC(C)C[C@H](NC(=O)[C@H](CCCCN)NC(=O)CNC(=O)[C@H](CC(C)C)NC(=O)[C@@H](NC(=O)[C@@H]1CSSC[C@H](N)C(=O)N[C@@H](CO)C(=O)N[C@@H](CC(N)=O)C(=O)N[C@@H](CC(C)C)C(=O)N[C@@H](CO)C(=O)N[C@@H]([C@@H](C)O)C(=O)N1)C(C)C)C(=O)N[C@@H](CO)C(=O)N[C@@H](CCC(N)=O)C(=O)N[C@@H](CCC(=O)O)C(=O)N[C@@H](CC(C)C)C(=O)N[C@@H](Cc1c[nH]cn1)C(=O)N[C@@H](CCCCN)C(=O)N[C@@H](CC(C)C)C(=O)N[C@@H](CCC(N)=O)C(=O)N[C@H](C(=O)N[C@@H](Cc1ccc(O)cc1)C(=O)N1CCC[C@H]1C(=O)N[C@@H](CCCNC(=N)N)C(=O)N[C@H](C(=O)N[C@@H](CC(N)=O)C(=O)N[C@H](C(=O)NCC(=O)N[C@@H](CO)C(=O)NCC(=O)N[C@H](C(=O)N1CCC[C@H]1C(N)=O)[C@@H](C)O)[C@@H](C)O)[C@@H](C)O)[C@@H](C)O [salmon calcitonin],Tmax,[1],5 to 15 min
same,"amount detected in plasma, enteric coated vs non-coated capsules",[2],nearly eight times
